In patent US20150216975A1, “NANOVECTOR BASED DRUG DELIVERY SYSTEM FOR OVERCOMING DRUG RESISTANCE” (WILLIAM MARSH RICE UNIVERSITY, priority 2012, published 2015):

Experiments:
[1] = tested on: xenobiotic pumps in human primary GBM cells; test: Retention of xenobiotic pump dye substrates (Rh123, BCECF, Hoe) in GBM cells (FIG. 1, 2A, 2F); assay type: cell-based; conditions: for retention of dyes (Rh123, BCECF, Hoe): human GBM cells, ninety minutes, 20 μM Fumitremorgin C, 200 μM Indomethacin; for dye retention, chemotherapeutic drug alone / dye accumulation in drug and inhibitor combinations / dye retention, pump inhibitor loaded on PEG-HCC targeted by IL-13R IgGs: GBM cells; for dye retention, chemotherapeutic drug alone / dye accumulation in drug and inhibitor combinations: 24 hours; for dye retention, chemotherapeutic drug alone: 100 nM as GFAPAB/Drug/PEG-HCC; for dye accumulation in drug and inhibitor combinations: 100 nM drug and 2 μM inhibitor on targeted PEG-HCC (FIG. 2A); for dye retention, pump inhibitor loaded on PEG-HCC targeted by IL-13R IgGs: Il-13RAB/Inhibitor/PEG-HCC (FIG. 2A, 2F)
Excerpt: Applicants investigated the ability of human primary glioma cells to retain dyes in the absence and presence of known drug pump inhibitors. […] After ninety minutes, the cells were fixed using ice-cold 2% paraformaldehyde. The fixed cells were stored overnight in a refrigerator. The cells were then washed three times in phosphate buffered saline at pH 7.4 (PBS) and imaged in a fluorescence microscope.
In this experiment, PEG-HCCs were loaded with Halo, Sulfinpyrazone (Sulf) or Indo. The same methodologies outlined above were used. The constructs were then targeted to GBM cells by IL-13R IgGs.
(§1) The drugs (Vin and Doc) were delivered to a final concentration of 100 nM in the form of GFAPAB/Drug/PEG-HCC. In some experiments, pump inhibitors Haloperidol (Halo) and Indomethacin (Indo) were added at a final concentration of 2 μM in the form of Il-13RAB/Inhibitor/PEG-HCC. Controls consisting of unloaded PEG-HCC, drug/inhibitor loaded PEG-HCC, GFAPAB, or saline were also used. Cells were treated for 24 hours with GFAPAB/Drug/PEG-HCC and/or Il-13RAB/Halo/PEG-HCC. Next, the cells were incubated for 1 hour with Rh123, BCECF-AM and Hoe, as previously described. Cells were then imaged at ×30 magnification using filters for Rh123, BCECF and Hoe.

GBM cells = test: Potentiation of Vin or Doc toxicity in GBM cells by targeted vs untargeted Halo or Indo via IgG/PEG-HCC delivery, cell numbers (FIG. 3); assay type: cell-based, human; conditions: for cell number (% of control): 24 hours; for increase of toxicity by pump inhibition by Halo (targeted vs untargeted, untargeted averaged to 100%) / increase of toxicity by pump inhibition by Indo (targeted vs untargeted, untargeted averaged to 100%): FIG. 3B
Procedure: To confirm the potentiation effect of chemotherapeutic agents and pump inhibitors, Applicants performed a similar experiment to that shown in FIG. 2. In these experiments, Applicants examined the effects of both inhibitors on both chemotherapeutics. Applicants also inverted the targeting antibodies by utilizing GFAPAB/(Indo or Halo)/PEG-HCC and Il-13RAB/(Doc or Vin)/PEG-HCC. 2 μM Halo/PEG-HCC and Indo/PEG-HCC without antibody targeting were used as controls, which were added with and without 100 nM Vin or Doc as Il-13RAB/Drug/PEG-HCC.
200 nM Il-13RAB/Doc/PEG-HCC caused a drop in cell number to 75% and to 72% (the level seen in the controls) in the presence of (untargeted) Halo/PEG-HCC and Indo/PEG-HCC, respectively. However, targeting of Halo caused a large change in Doc toxicity. The inclusion of an antibody with Halo/PEG-HCC changed the toxicity from 75% to 37%. The inclusion of an antibody with Indo/PEG-HCC changed the Doc toxicity from 72% to 50%.
Vin toxicity was also potentiated in the presence of targeted xenobiotic pump inhibitors. Furthermore, the targeting of Halo dropped the cell numbers from 45% (control number, untargeted) to 27% (targeted). […] However, when Indo was targeted to the GBM cells, this dropped to only 14%. […] Only the potentiating effect is shown, comparing targeted and untargeted xenobiotic pump inhibitors, so that the cell numbers in the presence of untargeted pump inhibitor are averaged to 100%.

[2] = tested on: glioblastoma cells grown in culture; test: Living and dead GBM cell counts after Drug/PEG-HCC with or without Halo (FIG. 2B-2E); assay type: cell-based, human; conditions: for dead cell numbers when Halo is used in conjunction: 24 hours, drug/PEG-HCC with Halo (FIG. 2C)
Procedure: as §1
Furthermore, it is shown in FIG. 2C that the dead cell numbers are elevated when Halo is used in conjunction with both Vin and Doc.
FIGS. 2D-2E show additional data relating to Halo-mediated potentiation of Vin, Doc and SN38 toxicity in HADES compositions.

[3] = tested on: HER2-neu+ cervical cancer cells; test: Total cell protein of cervical cancer cells after antibody-guided PEG-HCC drugs and pump inhibitors (FIG. 4A); assay type: cell-based, human; conditions: 24 hours
Procedure: (§2) Applicants also investigated whether the potentiation of Vin and Doc toxicity (by Halo and Indo) was applicable to other cancer types. Applicants obtained human breast and cervical cancer cells from the ATCC and grew them in 96 well format.
(§3) In a pair of 96-well plates, confluent cancer cells were treated with 1 μM (Indo or Halo)/PEG-HCC and/or 1 μM (Doc or Vin)/PEG-HCC. The inhibitors were guided to the cell surface using anti-HER2 antibodies. The chemotherapeutics were guided using EGFR antibodies. After incubation for 24 hours, one plate was used to measure total cell protein, and the other was used in dye labeling studies (as described above). This was done for both HER2-neu+ breast and HER2-neu+ cervical cancer cells (where HER2-neu is human epidermal growth factor receptor-2).
100 nM Doc delivered using EGFR IgG yielded 78% of the control, whereas 100 nM Vin yielded 87% of the control. Halo increased the toxicity of Doc, lowering the total protein to 25% of the control. […] Indo increased the toxicity of Doc slightly (from 78% to 68%) and Vin greatly (from 87% to 36%). In the panels of FIG. 4C, the dye retention of these cervical cancer cells is shown under the same conditions. All four compounds cause a significant brightening of the cells.

[4] = tested on: HER2-neu+ breast cancer cells; test: Total cell protein of breast cancer cells after antibody-guided PEG-HCC drugs and pump inhibitors (FIG. 4B); assay type: cell-based, human; conditions: 24 hours
Procedure: as §2, §3
100 nM Doc delivered using EGFR IgG yielded 51% of the control, whereas 100 nM Vin yielded 65% of the control. Halo increased the toxicity of Doc, thereby lowering the total protein to 30% of the control. […] In the panels of FIG. 4D, the dye retention of these breast cancer cells is shown under the same conditions. All four compounds cause a significant brightening of the cells. The inhibitor and chemotherapeutic combination panels also indicate that dye retention is potentiated in all four combinations/permutations.

GBM cells (BT111 cells) = test: Toxicity of Doc/Vin and Halo/Indo delivered as peptidyl-PEG-HCC in GBM cells, living cell numbers (FIG. 12); assay type: cell-based, human; conditions: gliomal cells, 24 hours, 50 nM drug; for toxicity in the presence of both pump inhibitors (Halo and Indo): 1 μM Halo and Indo as peptidyl-PEG-HCC; for toxicity on co-incubation with Halo: 1 μM Halo as peptidyl-PEG-HCC (YRWYGYTPQNVI)
Procedure: (§4) In all cases, living cell numbers were calculated at n=6 individual wells and assayed using Hoe. Cells were incubated for 24 hours with Doc or Vin and targeted to the cell surface with peptidyl-PEG-HCC. The targeting peptidyl sequence was DFKLFAVTIKYR, which targets Intigrins αvβ3 and α5β. FIGS. 12B-12C provide data illustrating that drug pump inhibitors Halo and Indo potentiate the effects of Vin and Doc on GBM and breast cancer cells. Cells were incubated with PEG-HCC (control), 50 nM Doc or Vin, or Doc and Vin as peptidyl-PEG-HCC (using DFKLFAVTIKYR targeting Intigrins αvβ3 and α5β). Additionally, these four incubants were treated with PEG-HCC (control), 1 μM Halo or Indo, or Halo and Indo as peptidyl-PEG-HCC (using YRWYGYTPQNVI targeting EGFR).

[5] = tested on: human breast cancer cells; test: Toxicity of Doc/Vin and Halo/Indo delivered as peptidyl-PEG-HCC in breast cancer cells (FIG. 12); assay type: cell-based; conditions: 50 nM drug; for potentiation of toxicity by Indo: 1 μM Indo as peptidyl-PEG-HCC
Procedure: as §4

[6] = 100 nM drug delivered using EGFR IgG, no pump inhibitor
[7] = drug via EGFR IgG plus Indo/PEG-HCC guided by anti-HER2
[8] = drug via EGFR IgG plus Halo/PEG-HCC guided by anti-HER2

SMILES | retention of dyes (Rh123, BCECF, Hoe) [1] | increase of toxicity by pump inhibition by Halo (targeted vs untargeted, untargeted averaged to 100%) (GBM cells) | increase of toxicity by pump inhibition by Indo (targeted vs untargeted, untargeted averaged to 100%) (GBM cells) | dead cell numbers when Halo is used in conjunction [2] | dye retention, chemotherapeutic drug alone [1] | dye accumulation in drug and inhibitor combinations [1] | total cell protein (% of the control) [3, 6] | total cell protein (% of the control) [3, 7] | total cell protein (% of the control) [4, 6] | total cell protein (% of the control) [4, 7] | toxicity in the presence of both pump inhibitors (Halo and Indo) (GBM cells (BT111 cells)) | toxicity on co-incubation with Halo (GBM cells (BT111 cells)) | potentiation of toxicity by Indo [5] | dye retention, pump inhibitor loaded on PEG-HCC targeted by IL-13R IgGs [1] | further results
COc1ccc2c3c([nH]c2c1)[C@H](C=C(C)C)N1C(=O)[C@@H]2CCCN2C(=O)[C@@H]1C3 [Fumitremorgin C] | increase dye retention of all dyes | – | – | – | – | – | – | – | – | – | – | – | – | – | –
CC[C@]1(O)C[C@@H]2CN(CCc3c([nH]c4ccccc34)[C@@](C(=O)OC)(c3cc4c(cc3OC)N(C)[C@H]3[C@@](O)(C(=O)OC)[C@H](OC(C)=O)[C@]5(CC)C=CCN6CC[C@]43[C@@H]65)C2)C1 [Vin, vinblastine] | – | approximately 50% | 70% | elevated | differentially increase dye retention | synergistic effect in dye accumulation | 87% | 36% | 65% | 33% | did not lead to a greater level of toxicity than Indo alone | moderately enhanced | potentiated | – | cell number (% of control) (GBM cells; drug as Il-13RAB/Drug/PEG-HCC with antibody-targeted Halo/PEG-HCC (GFAPAB)): 27%; cell number (% of control) (GBM cells; drug as Il-13RAB/Drug/PEG-HCC with antibody-targeted Indo/PEG-HCC (GFAPAB)): 14%; effect of Halo on toxicity (in words) [3]: slight effect; effect of Halo on toxicity (in words) [4]: no potentiating effect; toxicity in the presence of Indo (GBM cells (BT111 cells); 1 μM Indo as peptidyl-PEG-HCC (YRWYGYTPQNVI)): more than doubled
COc1ccc2c(c1)c(CC(=O)O)c(C)n2C(=O)c1ccc(Cl)cc1 [Indo, Indomethacin] | increase dye retention of all dyes | – | – | – | – | – | – | – | – | – | – | – | – | same experimental results were obtained | –
CCc1c2c(nc3ccc(O)cc13)-c1cc3c(c(=O)n1C2)COC(=O)[C@]3(O)CC [SN-38] | – | – | – | – | – | – | – | – | – | – | – | – | – | – | effect of Halo on toxicity in HADES compositions ([2]; FIGS. 2D-2E): minimally affected
O=C(CCCN1CCC(O)(c2ccc(Cl)cc2)CC1)c1ccc(F)cc1 [Halo, Haloperidol] | – | – | – | – | – | – | – | – | – | – | – | – | – | same experimental results were obtained | –
CC(=O)O[C@@]12CO[C@@H]1C[C@H](O)[C@@]1(C)C(=O)[C@H](O)C3=C(C)[C@@H](OC(=O)[C@H](O)[C@@H](NC(=O)OC(C)(C)C)c4ccccc4)C[C@@](O)([C@@H](OC(=O)c4ccccc4)[C@H]21)C3(C)C [Doc, docetaxel] | – | approximately 50% | 40% | elevated | differentially increase dye retention | synergistic effect in dye accumulation | 78% | 68% | 51% | 68% | greater level of toxicity than Halo or Indo alone | more enhanced by co-incubation with Halo | potentiated | – | total cell protein (% of the control) [3, 8]: 25%; total cell protein (% of the control) [4, 8]: 30%; toxicity with both pump inhibitors (Halo and Indo) ([5]; 1 μM Halo and Indo as peptidyl-PEG-HCC): greatly by both on combination; potentiation of toxicity by Halo ([5]; 1 μM Halo as peptidyl-PEG-HCC): potentiated
